From US7754896B2, “Indol-alanine derivatives as selective S1P4-agonists” (Novartis AG, priority 2004, dated 2010)
pEC50: −log10 of the molar value.

Legend:
[1] = target: T1, S1P2 (Homo sapiens, UniProt O95136); test: GTPγS binding assay, S1P2; format: biochemical; settings: CHO cells expressing S1P2
T1 construct: expressed in transfected cells
Description: (§1) Human S1P1 (GenBank™ accession number M31210) and S1P3 (GenBank™ accession number X83864) cDNA containing the myc sequence in front to the human S1P1 and S1P3 sequences are inserted in the pcDNA 3.1 vector. The vectors are sequenced to completion to confirm the correctness of the construct. The human S1P2 (GI: 4090955, TREMBL: 0195136) is cloned by a PCR based method. Lung cDNA (marathon cDNA) is obtained (BD Biosciences Chontech, Palo Alto, Calif. 94303, USA). Following oligonucleotides are used for the PCR reaction: forward primer CACCATGGGCAGCTTGTACTCGGAGTACCT GM CCC CAA CM GGT CCA G (1 to 45, GenBank™ accession number AF034780) and reverse primer 5′-GATTCAGACCACCGTGTTGCCCTCCAG (1062 to 1039, GenBank™ accession number AF034780), the initiation of the translation (ATG) and the stop codon are underlined. […] The amplified product of around 1100 bp is analyzed by standard agarose gel-electrophoresis. […]
(§2) Membrane proteins are prepared from wild type CHO-K1 and the CHO cell clones expressing human S1P4. […] The protein concentration is determined using the Bio Rad Protein Assay and human IgG as standard. […]

[2] = target: T2, S1P1 (Homo sapiens, UniProt P21453); test: GTPγS binding assay, S1P1; format: biochemical; settings: CHO cells expressing S1P1
T2 construct: expressed in transfected cells
Description: as §1, §2

T2 sequence (P21453 whole entry): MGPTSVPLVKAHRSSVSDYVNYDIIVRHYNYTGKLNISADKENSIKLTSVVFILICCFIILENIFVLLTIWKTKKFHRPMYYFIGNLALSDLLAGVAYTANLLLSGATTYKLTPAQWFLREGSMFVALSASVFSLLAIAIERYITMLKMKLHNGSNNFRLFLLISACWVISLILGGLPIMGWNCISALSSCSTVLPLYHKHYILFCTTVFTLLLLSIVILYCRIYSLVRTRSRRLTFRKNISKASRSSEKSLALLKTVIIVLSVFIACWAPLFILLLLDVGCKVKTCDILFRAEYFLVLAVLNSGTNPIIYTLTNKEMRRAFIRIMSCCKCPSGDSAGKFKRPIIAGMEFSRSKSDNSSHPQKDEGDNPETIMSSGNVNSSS
T1 sequence (O95136 whole entry): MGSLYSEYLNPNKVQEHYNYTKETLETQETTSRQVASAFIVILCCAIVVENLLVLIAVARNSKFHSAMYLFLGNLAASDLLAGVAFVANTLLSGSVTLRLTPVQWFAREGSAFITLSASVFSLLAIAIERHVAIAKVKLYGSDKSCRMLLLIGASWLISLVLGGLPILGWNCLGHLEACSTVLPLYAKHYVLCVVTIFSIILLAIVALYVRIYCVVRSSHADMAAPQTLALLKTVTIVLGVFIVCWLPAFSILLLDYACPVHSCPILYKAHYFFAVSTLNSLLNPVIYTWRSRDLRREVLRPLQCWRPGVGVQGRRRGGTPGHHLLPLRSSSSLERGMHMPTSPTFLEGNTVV

NC(CNC(=O)c1cc2c(-c3ccccc3Cc3ccccc3)cccc2[nH]1)C(=O)O (centres unmarked) [Example 2]
pEC50 [1]: < 5.00
pEC50 [2]: < 5.00
